Here are results for one molecule from patent US8758769B2, “Composition for preventing and treating acetaminophen inducing liver injury comprising the protein extract from Porphyra yezoensis” (Pukyong National University Industry Academic Cooperation …, priority 2006, dated 2014).

The data set concerns HepG2 liver cell. Kind of data set: Proliferation of HepG2 liver cell by AAP treatment (MTS/MTT). It is filed as cell-based. Particulars: AAP in serum free medium, 24 hours and 48 hours, FIG. 7. How it is done:
The used HepG2 liver cell is distributed by ATCC (American Type Culture Center).
Antibiotics (penicillin/streptomycin) of 100 units/ml is added to an MEM medium and then filtrated by a filter of 0.22[…]. Before the culture, FBS (Fetal bovine serum) is added, thereby obtaining the final concentration of 10%. The cell is cultured in a 5% CO2 incubator at 37° C. During the culture of the cell, the medium is replaced by twice a week and when the medium is a confluent state, the medium is washed by PBS (Phosphate Buffered Saline). Thereafter, the attached cells are separated by 0.05% of trypsin solution and centrifuged, then each cell is mixed, dispersed properly by using a pipet and divided identically.
To examine the cell proliferation and the toxicity, the HepG2 liver cell is controlled by concentration of 5×10^4 cells/ml, and divided into 96-well microplates (palcon, USA) by 100[…] per a well and cultured. After 24 hours, a medium is replaced with a serum free medium and then cultured again for 24 hours. A protein sample is dissolved into the serum free medium, then diluted until 0.01% concentration. The dilution solution by each concentration is added to each cell line and cultured for 24 hours at the 5% CO2 incubator at 37° C. […] Thereafter, the absorbance at 490 nm is measured by using an automatic ELIZA reader and the cell survival ratio is calculated by a calculation formula 1. […]

Regarding `CC(=O)Nc1ccc(O)cc1` [AAP, Acetaminophen], the “Proliferation of the HepG2 liver cell” value is “inhibited according to increase of the AAP concentration and the culture time”.
